Reference: patent US20030144269A1, “Reducing pulse pressures and vascular stiffness in hypertensive patients by administering a vasopeptidase inhibitor” (priority 2001, published 2003)

Columns and labels:
[1] = test system: patients with systolic or mixed systolic-diastolic hypertension; experiment: Double-blind 12-week comparison of omapatrilat and enalapril: trough pulsatile hemodynamics (cuff pressure, arterial tonometry, Doppler flow); assay type: in vivo, human; conditions: for Brachial pressures: Systolic pressure: trough (24 h after last dose), titrated to 80 mg omapatrilat or 40 mg enalapril; for Brachial pressures: Systolic pressure / PfPb Temporal overlap / Augmentation index / Brachial pressures: Diastolic pressure / Brachial pressures: Mean pressure / Brachial pressures: Pulse pressure / Carotid-femoral PWV / Carotid-radial PWV / Central hemodynamics: Heart rate / Central hemodynamics: Mean flow / Central hemodynamics: Peak flow / Central hemodynamics: Peripheral resistance (DSC) / Central hemodynamics: Pulse pressure / Central hemodynamics: Systolic pressure / Central stiffness parameters: Characteristic impedance (DSC) / Central stiffness parameters: First impedance modulus (DSC) / Central stiffness parameters: Proximal aortic compliance (CD) / End-systolic pressure / Forward wave, Pf / PbPf Amplitude ratio / Pressure at ti / Reflected wave arrival time, ti / Reflected wave, Pb / Systolic ejection period: mean ± SD; for PfPb Temporal overlap: % of systolic ejection period; for change in characteristic impedance / reduction in mean arterial pressure: change from baseline at 12 weeks; for change in characteristic impedance: only subjects with reduction in mean arterial pressure between 0 and −40 mmHg; for reduction in mean arterial pressure: only subjects with reduction in mean arterial pressure between 0 and −40 mmHg (68 omapatrilat, 59 enalapril); for changes in regional pulse wave velocities (carotid-femoral and carotid-radial) (FIG. 4): in vivo
Procedure: The following study was performed to compare treatment with the vasopeptidase inhibitor omapatrilat and the angiotensin converting enzyme inhibitor enalapril.
Study subjects. Male or female subjects age 18 years or older were eligible if they were in sinus rhythm and had systolic or mixed systolic-diastolic hypertension, defined as a seated systolic blood pressure ≧160 mmHg if newly diagnosed or ≧140 mmHg if currently treated and diastolic blood pressure ≦110 mmHG. Patients with known or suspected secondary forms of hypertension were excluded. Patients with a history of transient ischemic attacks within the prior 12 months or myocardial infarction or angina within the prior 6 months were excluded. All patients with heart failure, documented ejection fraction <45%, valvular heart disease or clinically significant peripheral vascular disease (bruit or diminished pulse in any of the brachial, radial, femoral or carotid arteries or blood pressure difference between upper extremities >6 mmHg) were excluded. Additional exclusion criteria included renal or renovascular disease, uncontrolled diabetes (glucose >200 mg/dl fasting or >220 mg/dL nonfasting), autoimmune disease, multiple drug allergies, bronchospastic disease requiring chronic medication. Laboratory exclusion criteria included hemoglobin <9 g/dl, platelet count <80,000/μl, white cell count <3000/μl, neutrophil count <1500/μl, serum potassium <3.5 or >5.2 mmol/L, alanine aminotransferase or aspartate aminotransferase greater than three times the upper limits of normal or serum creatinine >2.5 mg/dL. Failure to obtain a technically satisfactory baseline study, as determined by the core lab, was an exclusion criterion. If an initial baseline study had potentially remediable technical limitations, a repeat study was allowed within 2-9 days.
Treatment protocol: A single-blind placebo lead-in period of 1-2 weeks, during which the seated blood pressure was confirmed to be ≧160 mmHg and <200 mmHg and the diastolic pressure ≦110 mmHg, after withdrawl of antihypertensive medications, was followed by a double-blind active treatment period of 12 weeks. Baseline hemodynamic studies were performed at the end of the placebo lead-in period between 6:00 and 10:00 a.m. with the patient in a fasting state prior to taking morning medications and off all antihypertensive medications for at least 1 week. Patients were randomized within 2-9 days following an approved baseline study. Treatment was initiated with either 10 mg omapatrilat or 10 mg enalapril and was titrated at two and four weeks to doses of 40 then 80 mg omapatrilat or 20 then 40 mg enalapril. […] No concomitant antihypertensive medications were permitted during the study. A trough hemodynamic study, the primary endpoint of the trial was performed at the end of the active treatment period, 24 hours after the last prior dose of study medication, under identical conditions as the baseline study. Patients were then given one additional dose of study medication, which was followed 4 hours later by a final (peak) hemodynamic study. In order to focus on long-term effects of therapy, the primary endpoint of the study was prospectively defined as the trough change from baseline in pulsatile hemodynamics.
Hemodynamic data acquisition: Subjects were studied in the supine position after approximately 10 minutes of rest. Using a semi-automated computer-controlled device, auscultatory blood pressure was obtained 3-5 times at 2 minute intervals with a goal of obtaining 3 sequential readings that agreed to within 5 mmHg for systolic and diastolic. Arterial tonometry and ECG were obtained form the brachial, radial, femoral and carotid arteries using a custom transducer. Next, the patient was placed in the left lateral decubitus position and echocardiographic images of the left ventricular outflow tract were obtained from a parasternal long axis view. […]

[2] = test system: patients who had left ventricular dysfunction and class II-IV congestive heart failure; conditions: cited from earlier work

With `O=C(N[C@H]1CCS[C@H]2CCC[C@@H](C(=O)O)N2C1=O)[C@H](S)Cc1ccccc1` (relative stereo) [Omapatrilat, [4S-[4α(R*),7α,10aβ]]-octahydro-4-[(2-mercapto-1-oxo-3-phenylpropyl)amino]-5-oxo-7H-pyrido[2,1-b][1,3]thiazepine-7-carboxylic acid] the “shortening of the systolic ejection period” value ([1]; 12 weeks, trough) was “not seen”, the “Brachial pressures: Systolic pressure” value ([1]; 12 weeks) was 147 ± 20 mmHg and the “PfPb Temporal overlap” value ([1]; 12 weeks, trough) was 64 ± 12 %. The Augmentation index ([1]; 12 weeks, trough) was 19 ± 13 %, the “Brachial pressures: Diastolic pressure” value ([1]; 12 weeks, trough) was 76 ± 11 mmHg and the “Brachial pressures: Mean pressure” value ([1]; 12 weeks, trough) was 105 ± 13 mmHg. For the same molecule, the “Brachial pressures: Pulse pressure” value ([1]; 12 weeks, trough) was 71 ± 18 mmHg, the “Carotid-femoral PWV” value ([1]; 12 weeks, trough) was 11.4 ± 3.1 m/s and the “Carotid-radial PWV” value ([1]; 12 weeks, trough) was 10.1 ± 1.4 m/s. For the same molecule, the “Central hemodynamics: Heart rate” value ([1]; 12 weeks, trough) was 64 ± 9 min⁻¹, the “Central hemodynamics: Mean flow” value ([1]; 12 weeks, trough) was 73 ± 16 mL/s and the “Central hemodynamics: Peak flow” value ([1]; 12 weeks, trough) was 312 ± 68 mL/s. For the same molecule, the “Central hemodynamics: Peripheral resistance (DSC)” value ([1]; 12 weeks, trough) was 1986 ± 449 dyne × sec / cm^5, the “Central hemodynamics: Pulse pressure” value ([1]; 12 weeks, trough) was 71 ± 22 mmHg and the “Central hemodynamics: Systolic pressure” value ([1]; 12 weeks, trough) was 147 ± 24 mmHg. The “Central stiffness parameters: Characteristic impedance (DSC)” value ([1]; 12 weeks, trough) was 208 ± 70 dyne × sec / cm^5, the “Central stiffness parameters: First impedance modulus (DSC)” value ([1]; 12 weeks, trough) was 323 ± 119 dyne × sec / cm^5 and the “Central stiffness parameters: Proximal aortic compliance (CD)” value ([1]; 12 weeks, trough) was 0.53 ± 0.26^† 10^−5 cm^4 / dyne. For the same molecule, the End-systolic pressure ([1]; 12 weeks, trough) was 114 ± 16 mmHg, the “Forward wave, Pf” value ([1]; 12 weeks, trough) was 54 ± 16 mmHg and the “PbPf Amplitude ratio” value ([1]; 12 weeks, trough) was 47 ± 7%. The Pressure at ti ([1]; 12 weeks, trough) was 132 ± 20 mmHg, the “Reflected wave arrival time, ti” value ([1]; 12 weeks, trough) was 116 ± 36 ms and the “Reflected wave, Pb” value ([1]; 12 weeks, trough) was 25 ± 7 mmHg. For the same molecule, the Systolic ejection period ([1]; 12 weeks, trough) was 320 ± 26 ms, the “peripheral resistance” value ([1]; 12 weeks, trough, versus enalapril) was “reduced more” and the “amplitude of the forward pressure wave” value ([1]; 12 weeks, unchanged peak flow) was “markedly reduced”. The “change in characteristic impedance adjusted for baseline mean arterial pressure and change in mean arterial pressure” value ([1]; 12 weeks, versus enalapril, P<0.05) was “remained significant”, the “change in characteristic impedance” value [1] was −37±58 dyne×sec/cm^5 and the “reduction in mean arterial pressure” value [1] was −13.8±7.4 mmHg. The “changes in central pulse pressure (FIG. 2)” value ([1]; compared to enalapril) was “greater reduction in the central pulse pressure compared to enalapril”, the “change in peripheral (brachial) systolic, diastolic, and pulse pressure (FIG. 1)” value ([1]; compared to enalapril, p<0.05) was “greater reductions in all measurements” and the “changes in regional pulse wave velocities (carotid-femoral and carotid-radial) (FIG. 4)” value [1] was “reduced regional pulse wave velocity”. For the same molecule, the “arrival time of the reflected wave (FIG. 4)” value ([1]; p<0.05) was “delayed reflected wave arrival time”, the “characteristic impedance, a direct measure of aortic stiffness (FIG. 3)” value ([1]; without a change in aortic flow) was “significantly reduced” and the “carotid-femoral pulse wave velocity” value [2] was “favorable trend toward reduction”.

With `CCOC(=O)[C@H](CCc1ccccc1)N[C@@H](C)C(=O)N1CCC[C@H]1C(=O)O` [Enalapril, reference compound] the “shortening of the systolic ejection period” value ([1]; 12 weeks, trough) was “shortening of the systolic ejection period”, the “Brachial pressures: Systolic pressure” value ([1]; 12 weeks) was 155 ± 20 mmHg and the “PfPb Temporal overlap” value ([1]; 12 weeks, trough) was 66 ± 8%. For the same molecule, the Augmentation index ([1]; 12 weeks, trough) was 21 ± 10 %, the “Brachial pressures: Diastolic pressure” value ([1]; 12 weeks, trough) was 81 ± 10 mmHg and the “Brachial pressures: Mean pressure” value ([1]; 12 weeks, trough) was 111 ± 12 mmHg. For the same molecule, the “Brachial pressures: Pulse pressure” value ([1]; 12 weeks, trough) was 74 ± 20 mmHg, the “Carotid-femoral PWV” value ([1]; 12 weeks, trough) was 11.9 ± 3.7 m/s and the “Carotid-radial PWV” value ([1]; 12 weeks, trough) was 10.6 ± 1.8 m/s. For the same molecule, the “Central hemodynamics: Heart rate” value ([1]; 12 weeks, trough) was 63 ± 8 min⁻¹, the “Central hemodynamics: Mean flow” value ([1]; 12 weeks, trough) was 73 ± 16 mL/s and the “Central hemodynamics: Peak flow” value ([1]; 12 weeks, trough) was 314 ± 70 mL/s. The “Central hemodynamics: Peripheral resistance (DSC)” value ([1]; 12 weeks, trough) was 2122 ± 462 dyne × sec / cm^5, the “Central hemodynamics: Pulse pressure” value ([1]; 12 weeks, trough) was 75 ± 23 mmHg and the “Central hemodynamics: Systolic pressure” value ([1]; 12 weeks, trough) was 156 ± 24 mmHg. For the same molecule, the “Central stiffness parameters: Characteristic impedance (DSC)” value ([1]; 12 weeks, trough) was 231 ± 94 dyne × sec / cm^5, the “Central stiffness parameters: First impedance modulus (DSC)” value ([1]; 12 weeks, trough) was 352 ± 163 dyne × sec / cm^5 and the “Central stiffness parameters: Proximal aortic compliance (CD)” value ([1]; 12 weeks, trough) was 0.49 ± 0.28 10^−5 cm^4 / dyne. The End-systolic pressure ([1]; 12 weeks, trough) was 120 ± 14 mmHg, the “Forward wave, Pf” value ([1]; 12 weeks, trough) was 58 ± 17 mmHg and the “PbPf Amplitude ratio” value ([1]; 12 weeks, trough) was 46 ± 8%. For the same molecule, the Pressure at ti ([1]; 12 weeks, trough) was 139 ± 17 mmHg, the “Reflected wave arrival time, ti” value ([1]; 12 weeks, trough) was 108 ± 25 ms and the “Reflected wave, Pb” value ([1]; 12 weeks, trough) was 27 ± 8 mmHg. For the same molecule, the Systolic ejection period ([1]; 12 weeks, trough) was 319 ± 27 ms, the “change in characteristic impedance” value [1] was −4±67 dyne×sec/cm^5 and the “reduction in mean arterial pressure” value [1] was −12.0±8.1 mmHg. The “changes in regional pulse wave velocities (carotid-femoral and carotid-radial) (FIG. 4)” value [1] was “reduced regional pulse wave velocity”.
